Source: patent US20130267474A1, “NOVEL PHYTOCHEMICALS FROM EXTRACTS OF MAPLE SYRUPS AND MAPLE TREES AND USES THEREOF” (UNIVERSITY OF RHODE ISLAND, priority 2010, published 2013)
Read-outs that look alike come from different tables or passages of the source.

What was measured:
[1] = test system: HCT-116 (human colon carcinoma); test: MTS cytotoxicity / antiproliferative assay; assay type: cell-based; settings: Homo sapiens
Protocol: (§1) Cell lines included three human colon cancer cells: HT-29 (human colon adenocarcinoma), HCT116 (human colon carcinoma) and Caco-2 (human epithelial colorectal adenocarcinoma). In addition, normal human colon cells are included: CCD-^18Co (human colon fibroblasts). All cell lines are obtained from the American Type Culture Collection (ATCC, Rockville, Md., USA) and maintained at the University of Rhode Island.
(§2) The assay is carried out to measure the IC50 values for samples. […] Test samples and a positive control, etoposide 4 mg/mL (Sigma), are solubilized in DMSO by sonication. […] Control wells are also included on all plates. […] Each point on the curve is […]. Data (see tables 6 to 9) are expressed as mean±SE for three replications on each cell line.

[2] = test system: HT-29 (human colon adenocarcinoma); test: MTS cytotoxicity / antiproliferative assay; assay type: cell-based; settings: Homo sapiens
Protocol: as §1, §2

[3] = test system: CCD-18Co (normal human colon fibroblasts); test: MTS cytotoxicity / antiproliferative assay; assay type: cell-based; settings: Homo sapiens, CCD-18Co
Protocol: as §1, §2

[4] = test system: Caco-2 (human epithelial colorectal adenocarcinoma); test: MTS cytotoxicity / antiproliferative assay; assay type: cell-based; settings: Homo sapiens
Protocol: as §1, §2

CCD-18Co cells = test: Flow cytometry analysis of cell cycle; assay type: cell-based, human; settings: 48 and 72 h
Protocol: (§3) (2×10^5) are collected after the corresponding experimental periods, fixed in ice-cold ethanol:PBS (70:30, v/v) for 30 min at 4° C., further resuspended in PBS with 100 μg ml^−1 RNAse and 40 μg ml^−1 propidium iodide, and then incubated at 37° C. for 30 min. The DNA content (10,000 cells) is analyzed using a FACS Calibur instrument equipped with FACStation running FACS Calibur software (BD Biosciences, San Diego, Calif., USA). The analyses of cell cycle distribution are performed in triplicate for each treatment (tested at 50 μg/mL concentrations). The coefficient of variation, according to the ModFit LT Version 2 acquisition software package (Verity Software House, Topsham, Me., USA), is always less than 5%.
as §3, with “Cells (2×10^5)” for “(2×10^5)”, “μg/mL” for “μg ml^−1”, “and” for “and then”, “min.” for “min. The”, “analysed” for “analyzed”, “treatment.” for “treatment (tested at 50 μg/mL concentrations).”

[5] = test system: colon cancer (HCT-116, Caco-2 and HT-29) cell lines; test: MTS antiproliferative assay, statements pooled over the colon cancer cell lines

Work on COc1cc([C@@H]2c3cc4c(cc3[C@@H](O[C@@H]3O[C@@H]5CO[C@@H](C)O[C@H]5[C@H](O)[C@H]3O)[C@H]3COC(=O)[C@H]23)OCO4)cc(OC)c1O [Etoposide, reference compound] yielded an IC50 ([1]; HCT-116, 48 h, read-out: HCT-116 48 h (IC50), 48 h) of 26.9 µM, an IC50 ([1]; HCT-116, 48 h, read-out: HCT-116 48 h(IC50), Table 6 maple compounds, 48 h, unit inferred) of 28.5 µM and an IC50 ([1]; HCT-116, 72 h, 72 h, read-out: HCT-116 72 h (IC50)) of 14.4 µM. It also gave an IC50 ([1]; HCT-116, 72 h, Table 6 maple compounds, 72 h, unit inferred, read-out: HCT-116 72 h(IC50)) of 21.9 µM, an IC50 ([1]; HCT-116, 72 h, Table 7 maple extracts, 72 h, unit inferred, read-out: HCT-116 72 h(IC50)) of 14.4 µM and an IC50 ([2]; HT-29, 48 h, read-out: HT-29 48 h (IC50), 48 h) of 13.4 µM. It also gave an IC50 ([2]; HT-29, 48 h, read-out: HT-29 48 h(IC50), Table 6 maple compounds, 48 h, unit inferred) of 21.2 µM, an IC50 ([2]; HT-29, 48 h, read-out: HT-29 48 h(IC50), Table 7 maple extracts, 48 h, unit inferred) of 13.4 µM and an IC50 ([2]; HT-29, 72 h, 72 h, read-out: HT-29 72 h (IC50)) of 7.3 µM. It also gave an IC50 ([2]; HT-29, 72 h, Table 6 maple compounds, 72 h, unit inferred, read-out: HT-29 72 h(IC50)) of 12.9 µM, an IC50 ([2]; HT-29, 72 h, Table 7 maple extracts, 72 h, unit inferred, read-out: HT-29 72 h(IC50)) of 7.3 µM and an IC50 ([3]; 48 h, read-out: CCD-18Co 48 h (IC50), 48 h) of 48.7 µM. The IC50 ([3]; 48 h, read-out: CCD-18Co 48 h(IC50), Table 6 maple compounds, 48 h, unit inferred) was 45.1 µM, the IC50 ([3]; 72 h, Table 6 maple compounds, 72 h, unit inferred, read-out: CCD-18Co 72 h(IC50)) was 42.4 µM and the IC50 ([3]; 72 h, read-out: CCD-18Co 72 h (IC50)) was 43.9 µM. The IC50 ([3]; CCD-18Co cells, read-out: IC50 of positive control, MTS) was 40 to 45 µM, the IC50 ([3]; positive control, footnote of Table 16, read-out: IC50 for the CCD-18Co cells) was 30 to 40 µM and the IC50 ([4]; Caco-2, 48 h, read-out: Caco-2 48 h (IC50), 48 h) was 18.9 µM. It also gave an IC50 ([4]; Caco-2, 48 h, read-out: Caco-2 48 h(IC50), Table 6 maple compounds, 48 h, unit inferred) of 14.3 µM, an IC50 ([4]; Caco-2, 72 h, 72 h, read-out: Caco-2 72 h (IC50)) of 16.1 µM and an IC50 ([4]; Caco-2, 72 h, Table 6 maple compounds, 72 h, unit inferred, read-out: Caco-2 72 h(IC50)) of 12.3 µM. The IC50 ([4]; Caco-2, 72 h, Table 7 maple extracts, 72 h, unit inferred, read-out: Caco-2 72 h(IC50)) was 16.1 µM, the “changes in cell cycle compared with control cells” value (CCD-18Co cells) was “slight but significant changes in the S phase” and the IC50 ([5]; Homo sapiens, read-out: IC50 (HT29, HCT116 and Caco-2), positive control, footnote of Table 16) was 10 to 20 µM. The IC50 ([5]; Homo sapiens, read-out: IC50 of positive control, MTS, HT-29, HCT116 and Caco-2) was 15 to 25 µM and the IC50 ([5]; read-out: IC50 of positive control, MTS, HT-29, HCT116 and Caco-2) was 10 to 20 µM.
